Assay results taken from patent US20230019491A1, “PYRIMIDINE TBK/IKKe INHIBITOR COMPOUNDS AND USES THEREOF” (Merck Patent GmbH, priority 2017, published 2023).

Assays:
IKKε = target: T1, IKKε (Homo sapiens, UniProt Q14164); experiment: IKKε biochemical assay; settings: 10 point 1:4 dose response, 30 uM top concentration, 90 min at 25° C., LabChip EZ Reader II; read-out: IKKε_IC50
T1 sequence (Q14164 1-716): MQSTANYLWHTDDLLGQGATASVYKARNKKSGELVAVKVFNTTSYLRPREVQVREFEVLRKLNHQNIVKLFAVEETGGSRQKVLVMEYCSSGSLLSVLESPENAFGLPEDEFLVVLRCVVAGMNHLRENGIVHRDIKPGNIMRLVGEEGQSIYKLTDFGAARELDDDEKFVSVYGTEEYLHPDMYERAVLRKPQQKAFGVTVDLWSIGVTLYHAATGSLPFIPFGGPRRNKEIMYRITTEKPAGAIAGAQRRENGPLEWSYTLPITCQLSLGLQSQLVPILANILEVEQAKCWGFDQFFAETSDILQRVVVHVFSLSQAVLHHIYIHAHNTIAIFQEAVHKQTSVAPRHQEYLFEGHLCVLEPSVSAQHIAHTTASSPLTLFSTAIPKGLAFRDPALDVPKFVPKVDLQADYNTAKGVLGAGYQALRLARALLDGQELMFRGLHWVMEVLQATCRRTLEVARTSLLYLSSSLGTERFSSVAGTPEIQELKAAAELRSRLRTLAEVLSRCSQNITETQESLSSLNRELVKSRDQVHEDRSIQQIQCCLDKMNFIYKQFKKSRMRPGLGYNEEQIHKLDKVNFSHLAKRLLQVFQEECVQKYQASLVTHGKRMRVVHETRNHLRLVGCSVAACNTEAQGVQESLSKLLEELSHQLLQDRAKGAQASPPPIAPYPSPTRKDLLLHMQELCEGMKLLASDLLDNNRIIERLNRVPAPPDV
In short: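 Mobility-shift LabChip read-out followed a 90 min, 25° C. reaction of IKKε with substrate and test compound, with DMSO held at 1% final. Reactions were ended with stop buffer. Wells with 10 uM final staurosporine defined complete inhibition, and DMSO-only wells the uninhibited level.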

TBK1 = target: T2, TBK1 (Homo sapiens, UniProt Q9UHD2); experiment: TBK biochemical assay; settings: 10 point 1:4 dose response, 30 uM top concentration, 90 min at 25° C., LabChip EZ Reader II; read-out: TBK1_IC50
T2 sequence (Q9UHD2 1-729): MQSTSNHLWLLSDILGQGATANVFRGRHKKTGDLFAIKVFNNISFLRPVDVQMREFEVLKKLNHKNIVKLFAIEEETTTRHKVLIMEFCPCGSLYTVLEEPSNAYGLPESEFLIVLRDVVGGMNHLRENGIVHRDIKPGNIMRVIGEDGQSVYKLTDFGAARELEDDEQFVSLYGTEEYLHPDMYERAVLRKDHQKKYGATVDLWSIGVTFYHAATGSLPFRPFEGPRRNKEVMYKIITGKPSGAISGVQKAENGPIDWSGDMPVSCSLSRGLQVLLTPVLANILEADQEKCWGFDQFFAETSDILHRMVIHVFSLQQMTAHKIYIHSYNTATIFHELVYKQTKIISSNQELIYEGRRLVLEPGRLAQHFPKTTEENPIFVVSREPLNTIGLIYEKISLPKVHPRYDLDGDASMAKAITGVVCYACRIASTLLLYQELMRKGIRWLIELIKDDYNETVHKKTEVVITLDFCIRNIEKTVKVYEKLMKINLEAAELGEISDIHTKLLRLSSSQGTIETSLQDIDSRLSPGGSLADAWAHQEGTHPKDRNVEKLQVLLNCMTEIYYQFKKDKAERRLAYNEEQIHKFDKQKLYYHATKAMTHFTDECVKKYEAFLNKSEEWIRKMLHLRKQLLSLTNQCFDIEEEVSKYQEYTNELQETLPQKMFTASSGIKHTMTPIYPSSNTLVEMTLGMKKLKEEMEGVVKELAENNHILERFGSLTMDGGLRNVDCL
In short: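 Read-out was a Caliper LabChip mobility-shift assay, run after a 90-min, 25 °C reaction of TBK1 with substrate and compounds, quenched with stop buffer. Control wells received staurosporine at 10 uM final.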

SMILES: COc1nc(Nc2nccc(-c3ccc(OC4CCN(C(=O)C(C)O)CC4(F)F)c(C#N)c3)n2)ccc1C1CCN(C2COC2)CC1 (centres unmarked) [Example 329, 2-[[33-difluoro-1-(2-hydroxypropanoyl)piperidin-4-yl]oxy]-5-[2-([6-methoxy-5-[1-(oxetan-3-yl)piperidin-4-yl]pyridin-2-yl]amino)pyrimidin-4-yl]benzonitrile]
- IC50 (IKKε): < 0.1 µM
- IC50 (TBK1): < 0.1 µM

SMILES: COc1cc(Nc2nccc(-c3ccc(O[C@H]4CCN(C(=O)[C@@H](C)O)CC4(F)F)c(C#N)c3)n2)ccn1 [Example 230, 2-((S)-3,3-difluoro-1-((R)-2-hydroxypropanoyl)piperidin-4-yloxy)-5-(2-(2-methoxypyridin-4-ylamino)pyrimidin-4-yl)benzonitrile]
- IC50 (IKKε): < 0.1 µM
- IC50 (TBK1): 0.1 to 1 µM

SMILES: COc1nc(Nc2nccc(-c3ccc(OC4CCN(C(=O)[C@@H](C)O)C4)c(C#N)c3)n2)ccc1N1CCN(C2COC2)CC1 (stereo partly drawn) [Example 184, 2-([1-[(2R)-2-hydroxypropanoyl]pyrrolidin-3-yl]oxy)-5-[2-([6-methoxy-5-[4-(oxetan-3-yl)piperazin-1-yl]pyridin-2-yl]amino)pyrimidin-4-yl]benzonitrile]
- IC50 (IKKε): 0.1 to 1 µM
- IC50 (TBK1): 0.1 to 1 µM

SMILES: COc1nc(Nc2nccc(-c3ccc(O[C@H]4CCN(C(=O)[C@@H](O)CO)C[C@@H]4F)c(C#N)c3)n2)ccc1N1CCN(C2COC2)CC1 [Example 197, 2-[(3S,4S)-1-((S)-2,3-Dihydroxy-propionyl)-3-fluoro-piperidin-4-yloxy]-5-{2 [6-methoxy-5-(4-oxetan-3-yl-piperazin-1-yl)-pyridin-2-ylamino]-pyrimidin-4-yl}-benzonitrile]
- IC50 (IKKε): < 0.1 µM
- IC50 (TBK1): < 0.1 µM

SMILES: COc1nc(Nc2nccc(-c3ccc(O[C@@H]4CCN(C(=O)[C@H](C)O)C[C@@H]4F)c(C#N)c3)n2)ccc1C1CCN(C2COC2)CC1 [Example 194, 2-[(3S,4R)-3-Fluoro-1-((S)-2-hydroxy-propionyl)-piperidin-4-yloxy]-5-[2-(2-methoxy-1′-oxetan-3-yl-1′,2′,3′,4′,5′,6′-hexahydro-[3,4′]bipyridinyl-6-ylamino)-pyrimidin-4-yl]-benzonitrile]
- IC50 (IKKε): < 0.1 µM
- IC50 (TBK1): < 0.1 µM

SMILES: COc1nc(Nc2nccc(-c3ccc(OC4CN(C)C4)c(C#N)c3)n2)ccc1N1CCN(C)CC1 [Example 86, 5-(2-[[6-methoxy-5-(4-methylpiperazin-1-yl)pyridin-2-yl]amino]pyrimidin-4-yl)-2-[(1-methylazetidin-3-yl)oxy]benzonitrile]
- IC50 (IKKε): 0.1 to 1 µM
- IC50 (TBK1): 0.1 to 1 µM

SMILES: COc1nc(Nc2nccc(-c3ccc(O[C@H]4CCNC[C@H]4F)c(C#N)c3)n2)ccc1N1CCN(C)CC1 [Example 95]
- IC50 (IKKε): < 0.1 µM
- IC50 (TBK1): < 0.1 µM

SMILES: COc1nc(Nc2nccc(-c3ccc(OC4CCNCC4)c(C#N)c3)n2)ccc1N1CCN(C2COC2)CC1 [Example 185, 5-[2-({6-methoxy-5-[4-(oxetan-3-yl)piperazin-1-yl]pyridin-2-yl}amino)pyrimidin-4-yl]-2-(piperidin-4-yloxy)benzonitrile]
- IC50 (IKKε): < 0.1 µM
- IC50 (TBK1): < 0.1 µM

SMILES: CC[C@H](O)C(=O)N1CCC(Oc2ccc(-c3ccnc(Nc4ccc(N5CCN(C6COC6)CC5)c(OC)n4)n3)cc2C#N)C(F)(F)C1 (stereo partly drawn) [Example 258, 2-[3,3-Difluoro-1-((S)-2-hydroxy-butyryl)-piperidin-4-yloxy]-5-{2-[6-methoxy-5-(4-oxetan-3-yl-piperazin-1-yl)-pyridin-2-ylamino]-pyrimidin-4-yl}-benzonitrile]
- IC50 (IKKε): < 0.1 µM
- IC50 (TBK1): < 0.1 µM

SMILES: COc1nccc(Nc2nccc(-c3ccc(OC4CCN(C(=O)[C@H](C)O)CC4(F)F)c(C#N)c3)n2)n1 (some centres unmarked) [Example 233]
- IC50 (IKKε): < 0.1 µM
- IC50 (TBK1): < 0.1 µM

SMILES: COc1nc(Nc2nccc(-c3ccc(OC4CCN(C(=O)c5cocn5)CC4)c(C#N)c3)n2)ccc1C(=O)N(C)C [Example 77, 6-([4-[3-cyano-4-([1-[(1,3-oxazol-4-yl)carbonyl]piperidin-4-yl]oxy)phenyl]pyrimidin-2-yl]amino)-2-methoxy-N,N-dimethylpyridine-3-carboxamide]
- IC50 (IKKε): < 0.1 µM
- IC50 (TBK1): < 0.1 µM

SMILES: COc1cccc(Nc2nccc(-c3ccc(O[C@@H]4CCN(C(=O)[C@H](C)O)CC4(F)F)c(C#N)c3)n2)n1 [Example 241, 2-[[(4R)-3,3-difluoro-1-[(2S)-2-hydroxypropanoyl]piperidin-4-yl]oxy]-5-[2-[(6-methoxypyridin-2-yl)amino]pyrimidin-4-yl]benzonitrile]
- IC50 (IKKε): < 0.1 µM
- IC50 (TBK1): < 0.1 µM

SMILES: COc1nc(Nc2nccc(-c3ccc(OC4CCOCC4)c(C#N)c3)n2)ccc1C1CCN(C)CC1F (centres unmarked) [Example 43, 5-(2-[[5-(3-fluoro-1-methylpiperidin-4-yl)-6-methoxypyridin-2-yl]amino]pyrimidin-4-yl)-2-(oxan-4-yloxy)benzonitrile]
- IC50 (IKKε): < 0.1 µM
- IC50 (TBK1): < 0.1 µM

SMILES: COc1nc(Nc2nccc(-c3ccc(OC4CCN(C(=O)[C@@H](O)CO)CC4C)c(C#N)c3)n2)ccc1N1CCN(C2COC2)CC1 (stereo partly drawn) [Example 272, 2-[1-((S)-2,3-Dihydroxy-propionyl)-3-methyl-piperidin-4-yloxy]-5-{2-[6-methoxy-5-(4-oxetan-3-yl-piperazin-1-yl)-pyridin-2-ylamino]-pyrimidin-4-yl}-benzonitrile]
- IC50 (IKKε): < 0.1 µM
- IC50 (TBK1): < 0.1 µM

SMILES: COc1cc(Nc2nccc(-c3cc(C#N)c(OC4CCOCC4)cn3)n2)cnc1C(=O)N(C)C [Example 52, 5-([4-[4-cyano-5-(oxan-4-yloxy)pyridin-2-yl]pyrimidin-2-yl]amino)-3-methoxy-N,N-dimethylpyridine-2-carboxamide]
- IC50 (IKKε): 1 to 5 µM
- IC50 (TBK1): 1 to 5 µM

SMILES: COc1nc(Nc2nccc(-c3ccc(OC4CCN(C(=O)[C@@H]5CCC(=O)N5)CC4(F)F)c(C#N)c3)n2)ccc1N1CCN(C2COC2)CC1 (stereo partly drawn) [Example 256, 2,2-[3,3-Difluoro-1-((S)-5-oxo-pyrrolidine-2-carbonyl)-piperidin-4-yloxy]-5-{2-[6-methoxy-5-(4-oxetan-3-yl-piperazin-1-yl)-pyridin-2-ylamino]-pyrimidin-4-yl}-benzonitrile]
- IC50 (IKKε): < 0.1 µM
- IC50 (TBK1): < 0.1 µM

SMILES: COc1nc(Nc2nccc(-c3ccc(O[C@@H]4CCN(C(=O)[C@H](C)O)CC4(F)F)c(C#N)c3)n2)ccc1N1CCN(C2COC2)[C@@H](C)C1 [Example 248, 2 2-[(R)-3,3-Difluoro-1-((S)-2-hydroxy-propionyl)-piperidin-4-yloxy]-5-{2-[6-methoxy-5-((S)-3-methyl-4-oxetan-3-yl-piperazin-1-yl)-pyridin-2-ylamino]-pyrimidin-4-yl}-benzonitrile]
- IC50 (IKKε): < 0.1 µM
- IC50 (TBK1): < 0.1 µM

SMILES: COc1nc(Nc2nccc(-c3ccc(OC4CCOCC4)c(C#N)c3)n2)ccc1C(=O)N1CCNC(=O)C1 [Example 6, 5-{2-[6-methoxy-5-(3-oxo-piperazine-1-carbonyl)-pyridin-2-ylamino]-pyrimidin-4-yl}-2-(tetrahydro-pyran-4-yloxy)-benzonitrile]
- IC50 (IKKε): < 0.1 µM
- IC50 (TBK1): < 0.1 µM

SMILES: COc1nc(Nc2nccc(-c3cc(C#N)c(OC4CCN(C(=O)[C@H](C)O)CC4(F)F)cc3C)n2)ccc1N1CCN(C2COC2)CC1 (stereo partly drawn) [Example 307, 2-([3,3-difluoro-1-[(2S)-2-hydroxypropanoyl]piperidin-4-yl]oxy)-5-[2-([6-methoxy-5-[4-(oxetan-3-yl)piperazin-1-yl]pyridin-2-yl]amino)pyrimidin-4-yl]-4-methylbenzonitrile]
- IC50 (IKKε): < 0.1 µM
- IC50 (TBK1): < 0.1 µM
